Data from patent US8883827B2, “Azole derivatives as WTN pathway inhibitors” (Oslo University Hospital HF, priority 2009, dated 2014).

What was measured:
PKCθ(h) = molecular target: T1, PKCθ(h) (Homo sapiens, UniProt Q04759); assay: Kinase screen; type: biochemical; conditions: 0.1% DMSO control = 100%
T1 construct: purchased Millipore (KinaseProfiler service)

PKBα(h) = molecular target: T2, PKBα(h) (Homo sapiens, UniProt P31749); assay: Kinase screen; type: biochemical; conditions: 0.1% DMSO control = 100%
T2 construct: purchased Millipore (KinaseProfiler service)

KDR(h) = molecular target: T3, KDR(h) (Homo sapiens, UniProt P35968); assay: Kinase screen; type: biochemical; conditions: 0.1% DMSO control = 100%
T3 construct: purchased Millipore (KinaseProfiler service)

Lyn(h) = molecular target: T4, Lyn(h) (Homo sapiens, UniProt P07948); assay: Kinase screen; type: biochemical; conditions: 0.1% DMSO control = 100%
T4 construct: purchased Millipore (KinaseProfiler service)

YopH(y) = conditions: 10 μM
Xenopus embryos = assay: Xenopus laevis axis duplication assay (XWnt8 mRNA); type: in vivo; conditions: 0.4 pmol injected, scored after 36 h; compared to DMSO controls
Experimental: Injection of ectopic XWnt8 mRNA into the prospective ventral side activates canonical Wnt pathway signaling and induces a secondary body axis. This assay provides a reliable method to test biological effects of compounds with potential effects on Wnt signaling. […] The embryos were incubated at 19° C. and axis duplication was scored after 36 hours.

SAPK2a(h) = molecular target: T5, SAPK2a(h) (Homo sapiens, UniProt Q16539); assay: Kinase screen; type: biochemical; conditions: 0.1% DMSO control = 100%
T5 construct: purchased Millipore (KinaseProfiler Service)

TMDP(h) = molecular target: T6, TMDP(h) (Homo sapiens, UniProt Q9UII6); assay: Phosphatase screen; type: biochemical; conditions: 0.1% DMSO control = 100%
T6 construct: purchased Millipore (KinaseProfiler service)
T6 sequence (Q9UII6 whole entry): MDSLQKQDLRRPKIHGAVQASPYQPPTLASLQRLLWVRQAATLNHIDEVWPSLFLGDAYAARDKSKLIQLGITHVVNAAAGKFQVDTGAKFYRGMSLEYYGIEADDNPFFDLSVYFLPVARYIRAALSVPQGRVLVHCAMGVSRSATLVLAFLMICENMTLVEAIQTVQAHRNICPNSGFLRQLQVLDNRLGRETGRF

Rse(h) = molecular target: T7, Rse(h) (Homo sapiens, UniProt Q06418); assay: Kinase screen; type: biochemical; conditions: 0.1% DMSO control = 100%
T7 construct: purchased Millipore (KinaseProfiler service)
T7 sequence (Q06418 41-890): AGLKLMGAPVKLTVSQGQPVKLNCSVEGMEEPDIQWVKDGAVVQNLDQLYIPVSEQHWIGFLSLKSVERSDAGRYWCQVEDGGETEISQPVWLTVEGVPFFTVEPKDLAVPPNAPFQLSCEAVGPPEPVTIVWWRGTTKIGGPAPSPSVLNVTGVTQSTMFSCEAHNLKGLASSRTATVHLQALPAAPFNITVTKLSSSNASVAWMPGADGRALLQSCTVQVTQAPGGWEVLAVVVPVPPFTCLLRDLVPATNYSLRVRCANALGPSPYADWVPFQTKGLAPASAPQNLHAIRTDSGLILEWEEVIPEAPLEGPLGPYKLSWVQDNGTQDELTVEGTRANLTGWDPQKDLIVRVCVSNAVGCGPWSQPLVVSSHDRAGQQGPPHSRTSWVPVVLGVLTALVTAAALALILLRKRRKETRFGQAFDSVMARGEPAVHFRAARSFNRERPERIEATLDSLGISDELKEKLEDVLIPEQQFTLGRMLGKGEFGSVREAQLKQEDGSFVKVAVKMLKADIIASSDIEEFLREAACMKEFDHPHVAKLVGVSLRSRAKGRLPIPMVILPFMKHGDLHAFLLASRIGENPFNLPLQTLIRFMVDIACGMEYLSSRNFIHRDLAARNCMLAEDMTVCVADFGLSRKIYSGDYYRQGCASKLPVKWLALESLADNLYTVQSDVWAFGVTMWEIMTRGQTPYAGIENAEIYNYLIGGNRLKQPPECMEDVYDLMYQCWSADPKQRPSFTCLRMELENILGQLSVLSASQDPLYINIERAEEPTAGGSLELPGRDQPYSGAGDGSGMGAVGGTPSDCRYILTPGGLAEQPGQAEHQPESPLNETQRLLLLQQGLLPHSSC

[1] = tested on: SW480 colon carcinoma cells; assay: MTS cell proliferation assay, Table 5; type: cell-based; conditions: Homo sapiens; SW480, 10 μM, 72 h; relative to DMSO control; read-out: Cell proliferation (%) for test compounds
Procedure, shortened: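 SW480 cells treated with 10 μM compound (0.1% DMSO vehicle) in 10% FBS medium, refreshed daily, for 72 h. MTS reduction read at A490 after 2 h substrate incubation; values are t0-corrected growth as percent of DMSO control.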

ALK(h) = molecular target: T8, ALK(h) (Homo sapiens, UniProt Q9UM73); assay: Kinase screen; type: biochemical; conditions: 0.1% DMSO control = 100%
T8 construct: purchased Millipore (KinaseProfiler service)
T8 sequence (Q9UM73 19-1620): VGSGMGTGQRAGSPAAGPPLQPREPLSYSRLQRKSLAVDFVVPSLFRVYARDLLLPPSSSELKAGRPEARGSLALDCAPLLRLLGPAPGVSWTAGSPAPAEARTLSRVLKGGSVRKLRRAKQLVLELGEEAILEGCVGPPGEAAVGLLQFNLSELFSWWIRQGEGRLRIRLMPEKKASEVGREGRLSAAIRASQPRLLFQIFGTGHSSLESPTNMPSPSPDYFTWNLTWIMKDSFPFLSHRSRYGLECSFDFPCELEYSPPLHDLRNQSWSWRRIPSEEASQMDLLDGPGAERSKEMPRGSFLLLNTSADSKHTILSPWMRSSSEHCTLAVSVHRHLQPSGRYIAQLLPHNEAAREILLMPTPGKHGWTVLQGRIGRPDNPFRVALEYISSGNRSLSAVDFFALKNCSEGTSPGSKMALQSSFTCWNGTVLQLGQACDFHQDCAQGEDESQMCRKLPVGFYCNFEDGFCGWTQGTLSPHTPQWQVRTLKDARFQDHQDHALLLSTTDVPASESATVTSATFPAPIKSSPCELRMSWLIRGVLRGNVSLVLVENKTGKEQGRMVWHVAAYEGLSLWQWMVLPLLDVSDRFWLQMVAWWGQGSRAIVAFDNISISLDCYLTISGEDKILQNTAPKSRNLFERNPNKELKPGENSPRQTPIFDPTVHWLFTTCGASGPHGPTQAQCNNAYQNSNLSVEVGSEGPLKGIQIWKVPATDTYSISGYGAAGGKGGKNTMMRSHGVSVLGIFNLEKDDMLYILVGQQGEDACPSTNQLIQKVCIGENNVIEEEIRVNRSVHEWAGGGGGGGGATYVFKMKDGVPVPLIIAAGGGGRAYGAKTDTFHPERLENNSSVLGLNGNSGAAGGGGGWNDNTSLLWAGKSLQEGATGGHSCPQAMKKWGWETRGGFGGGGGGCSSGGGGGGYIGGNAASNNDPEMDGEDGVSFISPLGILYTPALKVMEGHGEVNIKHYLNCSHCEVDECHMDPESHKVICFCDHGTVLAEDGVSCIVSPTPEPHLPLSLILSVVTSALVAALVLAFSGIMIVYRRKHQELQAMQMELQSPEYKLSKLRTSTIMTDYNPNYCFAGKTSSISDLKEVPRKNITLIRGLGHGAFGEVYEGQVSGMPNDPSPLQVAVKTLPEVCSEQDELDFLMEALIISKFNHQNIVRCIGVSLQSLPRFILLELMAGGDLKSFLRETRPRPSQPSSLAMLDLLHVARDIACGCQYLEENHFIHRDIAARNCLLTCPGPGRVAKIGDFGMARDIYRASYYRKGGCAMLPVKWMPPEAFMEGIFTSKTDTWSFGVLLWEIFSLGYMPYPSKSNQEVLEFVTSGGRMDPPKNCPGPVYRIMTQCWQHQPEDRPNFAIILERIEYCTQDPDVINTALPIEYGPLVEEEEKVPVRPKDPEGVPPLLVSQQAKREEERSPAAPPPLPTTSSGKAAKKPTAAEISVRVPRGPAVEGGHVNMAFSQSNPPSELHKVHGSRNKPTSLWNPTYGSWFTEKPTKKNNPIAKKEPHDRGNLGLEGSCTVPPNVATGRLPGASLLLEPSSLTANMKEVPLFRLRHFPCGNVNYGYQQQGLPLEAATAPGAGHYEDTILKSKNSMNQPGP

CK2(h) = molecular target: T9, CK2(h) (Homo sapiens, UniProt P68400); assay: Kinase screen; type: biochemical; conditions: 0.1% DMSO control = 100%
T9 construct: purchased Millipore (KinaseProfiler service)
T9 sequence (P68400 whole entry): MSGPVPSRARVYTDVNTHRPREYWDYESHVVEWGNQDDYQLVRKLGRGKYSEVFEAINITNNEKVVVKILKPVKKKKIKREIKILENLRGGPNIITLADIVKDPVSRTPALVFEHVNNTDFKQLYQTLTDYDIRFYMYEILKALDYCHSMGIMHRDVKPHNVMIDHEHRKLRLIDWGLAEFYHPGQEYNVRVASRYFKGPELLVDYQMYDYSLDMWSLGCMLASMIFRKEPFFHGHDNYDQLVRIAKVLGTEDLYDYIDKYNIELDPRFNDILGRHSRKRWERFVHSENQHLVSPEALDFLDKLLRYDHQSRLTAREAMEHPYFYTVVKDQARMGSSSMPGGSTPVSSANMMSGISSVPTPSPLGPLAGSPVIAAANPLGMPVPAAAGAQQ
T9 sequence (P67870 whole entry partner): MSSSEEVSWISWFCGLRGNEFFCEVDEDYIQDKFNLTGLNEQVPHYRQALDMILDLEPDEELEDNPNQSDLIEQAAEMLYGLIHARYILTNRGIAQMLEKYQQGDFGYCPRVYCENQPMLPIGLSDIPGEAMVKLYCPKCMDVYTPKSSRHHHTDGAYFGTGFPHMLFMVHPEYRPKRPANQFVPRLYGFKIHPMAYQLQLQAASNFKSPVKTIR

GRK5(h) = molecular target: T10, GRK5(h) (Homo sapiens, UniProt P34947); assay: Kinase screen; type: biochemical; conditions: 0.1% DMSO control = 100%
T10 construct: purchased Millipore (KinaseProfiler service)

LOK(h) = molecular target: T11, LOK(h) (Homo sapiens, UniProt O94804); assay: Kinase screen; type: biochemical; conditions: 0.1% DMSO control = 100%
T11 construct: purchased Millipore (KinaseProfiler service)

Mnk2(h) = molecular target: T12, Mnk2(h) (Homo sapiens, UniProt Q9HBH9); assay: Kinase screen; type: biochemical; conditions: 0.1% DMSO control = 100%
T12 construct: purchased Millipore (KinaseProfiler service)
T12 sequence (Q9HBH9 whole entry): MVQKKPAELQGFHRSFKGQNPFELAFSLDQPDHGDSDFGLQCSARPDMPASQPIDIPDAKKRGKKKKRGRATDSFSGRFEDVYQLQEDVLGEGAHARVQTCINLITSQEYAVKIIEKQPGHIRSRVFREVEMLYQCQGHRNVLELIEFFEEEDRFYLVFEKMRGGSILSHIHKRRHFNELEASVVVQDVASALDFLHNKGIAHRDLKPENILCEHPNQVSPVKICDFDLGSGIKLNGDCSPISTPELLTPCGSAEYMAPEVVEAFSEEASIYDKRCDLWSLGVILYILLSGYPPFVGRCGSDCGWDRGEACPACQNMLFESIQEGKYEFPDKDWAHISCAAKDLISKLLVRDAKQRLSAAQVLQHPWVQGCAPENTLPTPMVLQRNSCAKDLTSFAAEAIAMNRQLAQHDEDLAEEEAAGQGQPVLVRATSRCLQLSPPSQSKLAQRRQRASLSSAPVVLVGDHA

MSK2(h) = molecular target: T13, MSK2(h) (Homo sapiens, UniProt O75676); assay: Kinase screen; type: biochemical; conditions: 0.1% DMSO control = 100%
T13 construct: purchased Millipore (KinaseProfiler service)

Fyn(h) = molecular target: T14, Fyn(h) (Homo sapiens, UniProt P06241); assay: Kinase screen; type: biochemical; conditions: 0.1% DMSO control = 100%
T14 construct: purchased Millipore (KinaseProfiler service)
T14 sequence (P06241 whole entry): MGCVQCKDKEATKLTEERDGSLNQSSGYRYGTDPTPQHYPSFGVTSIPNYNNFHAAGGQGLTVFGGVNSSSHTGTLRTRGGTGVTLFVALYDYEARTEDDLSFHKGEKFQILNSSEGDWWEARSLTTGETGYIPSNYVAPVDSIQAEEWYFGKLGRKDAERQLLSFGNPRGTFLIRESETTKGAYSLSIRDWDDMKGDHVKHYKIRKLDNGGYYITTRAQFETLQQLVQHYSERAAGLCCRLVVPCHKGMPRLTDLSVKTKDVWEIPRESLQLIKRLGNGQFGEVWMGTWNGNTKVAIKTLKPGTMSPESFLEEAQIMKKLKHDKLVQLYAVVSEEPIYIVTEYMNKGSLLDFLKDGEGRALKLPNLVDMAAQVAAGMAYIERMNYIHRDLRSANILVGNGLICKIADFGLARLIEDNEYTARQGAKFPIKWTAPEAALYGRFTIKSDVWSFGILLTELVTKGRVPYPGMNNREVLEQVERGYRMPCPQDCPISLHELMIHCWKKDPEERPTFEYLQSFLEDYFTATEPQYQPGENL

Hh (Shh) pathway = assay: Shh Light II (Gli1-Luc) reporter assay; conditions: 1 or 10 μM, 48 h, 50% Shh-CM
Excerpt: 1) a stable reporter line for sonic hedgehog pathway, Shh Light II cells (Glil-Luc-purchased from ATCC and maintained according to suppliers recommendations);

PRAK(h) = molecular target: T15, PRAK(h) (Homo sapiens, UniProt Q8IW41); assay: Kinase screen; type: biochemical; conditions: 0.1% DMSO control = 100%
T15 construct: purchased Millipore (KinaseProfiler service)

SRPK1(h) = molecular target: T16, SRPK1(h) (Homo sapiens, UniProt Q96SB4); assay: Kinase screen; type: biochemical; conditions: 0.1% DMSO control = 100%
T16 construct: purchased Millipore (KinaseProfiler Service)

[2] = tested on: canonical Wnt signaling activated by β-catenin constructs; assay: ST-Luc reporter in HEK293 cells co-transfected with β-catenin variants; conditions: 10 or 25 μM, 24 h
Experimental: These included full-length β-catenin, β-catenin with point mutations at N-terminal phosphorylation sites (dominant active, da-Cat), N-terminal deletion of β-catenin (ΔN-Cat) as another dominant active form, and β-catenin C-terminal transactivation domain fused to LEF-1 (CLEF) functioning as dominant active LEF-1. Plasmid amounts used for transfections were diminished to nanograms per 48-well plate to obtain a pathway induction in the range of 10-20 fold.
Transfection was performed as described in Example 22, but using β-catenin variants co-transfected in the following plasmid combinations:
1) 0.215 μg SuperTOPFlash+0.02 μg Renilla+0.015 μg β-catenin;
2) 0.23 μg SuperTOPFlash+0.02 μg Renilla+0.2 ng da-Cat (dominant active β-catenin (S33, 37, 41 and 45A mutated);
3) 0.23 μg SuperTOPFlash+0.02 μg Renilla+0.2 ng ΔN-Cat (N-terminal deleted β-catenin; and
4) 0.23 μg SuperTOPFlash+0.02 μg Renilla+0.2 ng CLEF (β-catenin transactivation domain fused to LEF-1).

T1 sequence (Q04759 whole entry): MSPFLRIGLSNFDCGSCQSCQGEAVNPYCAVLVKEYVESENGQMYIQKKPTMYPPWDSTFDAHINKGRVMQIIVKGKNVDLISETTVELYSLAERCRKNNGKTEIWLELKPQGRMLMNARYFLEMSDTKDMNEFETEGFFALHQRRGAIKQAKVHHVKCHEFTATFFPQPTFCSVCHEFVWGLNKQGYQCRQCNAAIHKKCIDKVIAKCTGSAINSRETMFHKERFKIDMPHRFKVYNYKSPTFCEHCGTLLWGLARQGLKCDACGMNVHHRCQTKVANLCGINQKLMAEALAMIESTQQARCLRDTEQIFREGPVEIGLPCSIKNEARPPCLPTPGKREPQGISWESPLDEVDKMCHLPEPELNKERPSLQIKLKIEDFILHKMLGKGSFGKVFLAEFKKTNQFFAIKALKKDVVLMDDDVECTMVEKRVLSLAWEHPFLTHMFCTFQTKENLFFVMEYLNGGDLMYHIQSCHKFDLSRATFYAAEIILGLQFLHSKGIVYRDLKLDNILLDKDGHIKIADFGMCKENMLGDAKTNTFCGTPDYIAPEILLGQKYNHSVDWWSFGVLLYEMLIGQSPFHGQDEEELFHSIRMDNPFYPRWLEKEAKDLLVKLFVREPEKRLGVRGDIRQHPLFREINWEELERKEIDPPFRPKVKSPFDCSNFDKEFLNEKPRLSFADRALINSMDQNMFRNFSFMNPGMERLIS

COc1ccc(-n2c(SCc3nc(-c4ccc(C)cc4)no3)nnc2-c2ccncc2)cc1 [Compound 1]
activity at 10 µM (PKCθ(h)): 109% | activity at 10 µM (PKBα(h)): 79% | activity at 10 µM (KDR(h)): 104% | activity at 10 µM (Lyn(h)): 109% | Activity (%) (YopH(y)): 94% | reduction in double axis formation (Xenopus embryos): 87% | activity at 10 µM (SAPK2a(h)): 106% | activity at 10 µM (TMDP(h)): 97% | activity at 10 µM (Rse(h)): 108% | activity at 10 µM [1]: 52% | activity at 10 µM (ALK(h)): 91% | activity at 10 µM (CK2(h)): 105% | activity at 10 µM (GRK5(h)): 104% | activity at 10 µM (LOK(h)): 109% | activity at 10 µM (Mnk2(h)): 108% | activity at 10 µM (MSK2(h)): 108% | activity at 10 µM (Fyn(h)): 83% | effect against the Hh (Shh) pathway (Hh (Shh) pathway): no substantial activating or inhibitory effect | activity at 10 µM (PRAK(h)): 55% | activity at 10 µM (SRPK1(h)): 96% | activation of canonical Wnt signaling by full-length β-catenin [2]: reduced | activation of the pathway by CLEF [2]: not significantly antagonized | activation of the pathway by da-Cat [2]: not significantly antagonized | activation of the pathway by ΔN-Cat [2]: not significantly antagonized
